The values below come from patent US20120034193A1, “TREATMENT OF NEUROTROPHIC FACTOR MEDIATED DISORDERS” (priority 2009, published 2012).

The subject of one experiment is trkB mRNA. Description: trkB mRNA expression in rat cortical neurones under basal conditions (rt RT-PCR). As to conditions: 0.5 mM. Type of experiment: cell-based. The method, then: (§1) Rat cortical neurones were cultured by modification of a method previously described (Singer, et al., Neuroscience Letters, 1996, 212, pp. 13-16). Twelve days after the start of culturing, sarsasapogenin (30 nM), smilagenin (30 nM), 4-methylcatechol (0.5 mM), an inducer of NGF and BDNF release (Saporito et al., Experimental Neurology., 1993, 123, pp. 295-302; Nitta et al., Journal of Pharmacology and Experimental Therapeutics, 1999, 291, pp. 1276-1283) or vehicle (dimethyl sulfoxide, DMSO, 0.25%) were added for 1, 3 or 6 h. After incubation the total messenger ribonucleic acid (mRNA) was quantified using real time reverse transcription-polymerase chain reaction (rt RT-PCR).

The next experiment has as its system BDNF mRNA. Description: BDNF mRNA expression in rat cortical neurones under basal conditions (rt RT-PCR). Type of experiment: cell-based. As to conditions: 0.5 mM. The method, then: as §1
Another experiment relates to C57b1/6 RJ mice. Description: Sciatic nerve crush model. Type of experiment: in vivo, Mouse. The note with it: 10 μg/kg/day i.p.; nerve crush alone 109.10 ± 2.65. The source says:
The sciatic nerve crush model is a well characterised reversible model for motor neurone disease and post-traumatic nerve injuries (McMahon and Priestley, Current Opinion in Neurobiology, 1995, 5, pp. 616-624). The nerve damage is produced by mechanical pressure using haemostatic forceps, applied twice, 5 mm proximal to the trifurcation of the right sciatic nerve of these mice. […] The loss of nerve function recovers progressively over a 4-5 week period after the mechanical insult.
4-Methylcatechol (10 μg/kg/day, i.p.) was used as a positive control (Kaechi et al., Journal of Phamacology and Experimental Therapeutics, 1995, 272, pp. 1300-1304).
C57b1/6 RJ mice were anaesthetised with ketamine chlorhydrate (60 mg/kg, i.p.). The sciatic nerve was surgically exposed at mid thigh level and crushed at 5 mm proximal to the trifurcation of the sciatic nerve. The nerve was crushed twice for 30 s with a haemostatic forceps with a 90-degree rotation between each crush. […] The loss of nerve function recovered progressively over a 4-5 week period after mechanical insult. Electromyographic recordings were assessed as described above.

In the next experiment the test system is pmn mice. As to conditions: literature; CNTF i.p. CNTF-secreting cells, Xaliproden oral from birth, CGP 3466B oral at onset; cited from earlier work.
For experiment [1], the system named is rat primary cortical neurones. Description: Inhibition of induced neurite outgrowth by K252a or PD98059. Type of experiment: cell-based. Here is the method: Cortical neurones were cultured as detailed above. Neurones were exposed to vehicle (DMSO, 0.25%) or K252a (100 nM) for 1 h. After 1 h, vehicle, sarsasapogenin, smilagenin (30 nM) or BDNF (1.85 nM) was added to the medium in the maintained presence of K252a. Following 24 h exposure to sarsasapogenin or smilagenin (30 nM), vehicle (DMSO, 0.25%) or BDNF (1.85 nM), the neurones were washed using phosphate-buffered saline (PBS) and fixed in glutaraldehyde (2.5%) in PBS. Photographs of 40-60 neurones expressing neurites were taken with a camera fixed on a microscope (objective ×20, Nikon). The neurite length was measured by an analysis of the photographs.
Cortical neurones were cultured as detailed above. Neurones were exposed to vehicle (DMSO, 0.25%) or PD98059 (10 μM) for 1 h. After 1 h, vehicle, smilagenin (30 nM) or BDNF (1.85 nM) was added to the medium in the maintained presence of PD98059. Following 24 h exposure to smilagenin (30 nM), vehicle (DMSO, 0.25%) or BDNF (1.85 nM), the neurones were washed using PBS and fixed in glutaraldehyde (2.5%) in PBS. Photographs of 40-60 neurones expressing neurites were taken with a camera fixed on a microscope (objective ×20, Nikon). The neurite length was measured by an analysis of the photographs.

Experiment [2] concerns rat primary cortical neurones. Description: Pre-treatment against glutamate-induced damage (LDH) in cortical neurones. Type of experiment: cell-based. As to conditions: 24 h before and 24 h after glutamate 100 μM 10 min. Here is the method:
Exposure of rat primary cortical neurones to glutamate increases lactate dehydrogenase (LDH) activity measured 24 h after glutamate exposure, indicating significant neuronal damage. Rat cortical neurones were cultured by modification of a method previously described (Singer, et al., Neuroscience Letters, 1996, 212, pp. 13-16). On day 10 of culture, the medium was changed to a serum-free defined medium. On day 12, the cultures were washed and placed for 24 h in fresh medium containing test compound or vehicle (DMSO, 0.25%). On day 13 neurones were exposed to glutamate (100 μM; 10 min) at 37° C. The cultures were then washed with, and placed in, fresh medium supplemented with test compound or vehicle for a further 24 h before LDH was measured. Neuronal damage was assessed by measuring LDH activity in the media at 24 h after glutamate exposure.

Experiment [3] has as its system Rat spinal motor neurones. Description: Neuronal survival and neurite outgrowth in spinal motor neurones. As to conditions: 1.85 nM, 3 days. Type of experiment: cell-based. Here is the method: Rat spinal motor neurones were prepared according to a previously described method (Martinou et al, Neuron, 8, 737-744, 1992). Following 3 days of culturing with sarsasapogenin, smilagenin, vehicle (DMSO, 0.25%), Xaliproden, or BDNF, spinal cord motor neurones were washed twice in PBS, fixed in a cold solution of alcohol (95%) and acetic acid (5%) for 5 min and then rinsed 3 times in PBS. Neurones were stained using a monoclonal antibody anti β-tubulin and an anti mouse Immunoglobulin G. These antibodies stained neurone cell bodies (quantifying the neuroprotective effect) and neurites (quantifying the neurotrophic effect). The cell nuclei were stained by a fluorescent marker. After 1 h of incubation, cells were washed 3 times in PBS. […] A series of pictures were taken using a camera controlled by computer software. All the images were taken under the same conditions. Analyses of the number of cells labelled with anti β-tubulin antibodies and of the total number of cells (number of stained nuclei) were performed using LUCIA 6.0 software.

In experiment [4] the test system is Rat cortical neurones. Description: Neuritogenesis in cortical neurones. Type of experiment: cell-based. As to conditions: 3 nM, 24 h. The method, then:
Rat cortical neurones were cultured by modification of a previously described method (Singer, et al., Neuroscience Letters, 1996, 212, pp. 13-16). Cells were cultured with sarsasapogenin, smilagenin, vehicle (DMSO 0.25%), GDNF, BDNF or NGF for 24 h. For each group, 15 pictures showing neurones displaying neurites were selected at random in each field, and for each neurone the longest neurite was measured. The neurite number was measured by counting the number of neurones displaying neurites, the number of neurones not displaying neurites and the number of total neurones in each field. Six fields per well were examined.
The results are shown in Table 15 below, expressed as the number of neurones with neurites per field as a percentage of the total number of neurones per field.

The test system of experiment [5] is Rat cortical neurones. Description: Neuronal survival and neurite outgrowth of cortical neurones cultured in the absence of serum. Type of experiment: cell-based. As to conditions: 3 nM, one day, no serum. The method, then: Rat cortical neurones were cultured following the method described above.
The test compounds were added for 24 h.
Rat cortical neurones were exposed to sarsasapogenin, smilagenin (30 nM) or vehicle (DMSO, 0.25%) in the absence FBS or FCS for one day. Cortical neurones were stained using a monoclonal antibody anti β-tubulin diluted and an anti mouse Immunoglobulin G diluted. These antibodies stained neurone cell bodies (quantifying the neuroprotective effect) and neurites (quantifying the neurotrophic effect). An epifluorecence microscope (magnification ×20) with a camera took 2 pictures per well (10 pictures per condition). Analyses of the number of cells labelled with anti β-tubulin antibodies and of the total number of cells was performed using LUCIA 6.0 software.

The test system of experiment [6] is Rat spinal motor neurones. Description: Reversal of glutamate-induced damage in spinal motor neurones. Type of experiment: cell-based. The note with it: 3 nM for 48 h after glutamate 4 μM 10 min. The method, then: The rat spinal motor neurones were prepared as detailed above. On day 10, the medium was removed and the cultures exposed to glutamate (4 μM) for 10 min at 37° C. in 5% CO2/95% air atmosphere in defined medium. After the glutamate exposure, cultures were washed with DMEM at 37° C. then placed in fresh culture medium containing sarsasapogenin, smilagenin, vehicle or BDNF. After 48 h, the extent of motor neurone damage was determined as detailed above. This Example develops the work reported in Example 8 of PCT patent application No. WO-A-03/082893.

As to `Cc1ccc(O)c(O)c1` [4-Methylcatechol, reference compound], the “trkB mRNA, % increase above control” value in the experiment on trkB mRNA (1 h), with trkB mRNA (3 h) and in the experiment with trkB mRNA (6 h) was “No increase” throughout. Moreover, the results for the “BDNF mRNA, % increase above control” value in the experiment on BDNF mRNA (1 h), with BDNF mRNA (3 h) and in the experiment with BDNF mRNA (6 h) were “No increase”, “No increase” and 92%, respectively. For the same molecule, the “Degenerated fibres (% of control)” value in the experiment with C57b1/6 RJ mice was −7.48 ± 1.62 % of control.
As to `Cc1c(C)c2c(c(C)c1O)CC[C@@](C)(C(=O)N1CCN(c3ccc(N=C(N)c4cccs4)cc3)CC1)O2` [BN 80933], in the experiment on pmn mice, the “Increase of survival time / lifespan of pmn mice” value is reported as 40%.
For `C#CCN(C)CC1=Cc2ccccc2Oc2ccccc21.O=C(O)/C=C\C(=O)O` [CGP 3466B], the “Increase of survival time / lifespan of pmn mice” value with pmn mice is given as 57%.
Consider `COC(=O)[C@@]1(O)C[C@H]2O[C@]1(C)n1c3ccccc3c3c4c(c5c6ccccc6n2c5c31)C(=O)NC4` [K252a, reference compound], for which, in [1] (K252a 100 nM alone (control with K252a)), the “Neurite length (% of control)” value is reported as 95.22 ± 3.10 % of control.
`COc1cccc(-c2cc(=O)c3ccccc3o2)c1N` [PD98059, reference compound]: the “Neurite length (% of control)” value in experiment [1] (PD98059 10 μM alone (control with PD98059)) was 96.08 ± 2.47 % of control.
`C[C@@H]1CC[C@@]2(OC1)O[C@H]1C[C@H]3[C@@H]4CC=C5C[C@@H](O)CC[C@]5(C)[C@H]4CC[C@]3(C)[C@H]1[C@@H]2C` [diosgenin, reference compound]: the “Neuronal survival (% of control)” value in experiment [2] (3 nM) is on record as 69.43 ± 1.76 % of control; in experiment [2] (10 nM) it was 66.51 ± 5.13 % of control; in [2] (30 nM) it was 68.98 ± 5.39 % of control; in experiment [2] (100 nM), 70.95 ± 5.03 % of control; in experiment [2] (300 nM), 75.02 ± 2.68 % of control.

B1: CNTF: ciliary neurotrophic factor; i.p. administration of CNTF-secreting cells (protein, UniProt P26441 1-200, looked up)
Ciliary neurotrophic factor: MAFTEHSPLTPHRRDLCSRSIWLARKIRSDLTALTESYVKHQGLNKNINLDSADGMPVASTDQWSELTEAERLQENLQAYRTFHVLLARLLEDQQVHFTPTEGDFHQAIHTLLLQVAAFAYQIEELMILLEYKIPRNEADGMPINVGDGGLFEKKLWGLKVLQELSQWTVRSIHDLRFISSHQTGIPARGSHYIANNKKM
modifications: secreted by cells
Consider B1, for which the “Increase of survival time / lifespan of pmn mice” value with pmn mice is on record as 40%.

B2: BDNF: brain-derived neurotrophic factor (protein, UniProt P23560 19-247, looked up)
Neurotrophic factor BDNF …: APMKEANIRGQGGLAYPGVRTHGTLESVNGPKAGSRGLTSLADTFEHVIEELLDEDQKVRPNEENNKDADLYTSRVMLSSQVPLEPPLLFLLEEYKNYLDAANMSMRVRRHSDPARRGELSVCDSISEWVTAADKKTAVDMSGGTVTVLEKVPVSKGQLKQYFYETKCNPMGYTKEGCRGIDKRHWNSQCRTTQSYVRALTMDSKKRIGWRFIRIDTSCVCTLTIKRGR
Take B2: the entries for the “Neurite outgrowth (% of control)” value (in [3]; in the experiment on Rat cortical neurones [5]) were 176.91 ± 7.25 % of control and 146.84 ± 9.27 % of control, respectively. Moreover, the “Neuronal survival (% of control)” value in [3] is given as 126.15 ± 1.60 % of control; with Rat cortical neurones [5], 162.75 ± 5.61 % of control; in experiment [6], 106.60 ± 6.14 % of control. Also, the “Neurite length (% of control)” value with Rat cortical neurones [4] is 162.34 ± 5.91 % of control; in experiment [1] (1.85 nM, 24 h, no inhibitor) it was 125.30 ± 5.80^++++ % of control; in experiment [1] (1.85 nM, 24 h, with K252a (100 nM)), 87.31 ± 2.20 % of control; in experiment [1] (1.85 nM, 24 h, with PD98059 (10 μM)) it was 99.07 ± 5.15 % of control. Also, the “Neurones displaying neurites (%)” value with Rat cortical neurones [4] (control 39.35 ± 2.06) is listed as 48.06 ± 2.17 %.
